In US20100229250A1, “TREATMENT AND PREVENTION OF ISCHEMIC BRAIN INJURY” (THE JOHNS HOPKINS UNIVERSITY, priority 2007, published 2010):
“Also recorded” adds a separate entry of the source.

Columns and labels:
FP receptor [1] = biological target: T1, FP receptor (Mus musculus, UniProt P43117); test: Brain infarction (TTC staining) after transient ischemia (90-min MCAO), post-treatment with FP agonist; type: in vivo; conditions: WT mice, TTC at 96 h
T1 construct: WT mice were post-treated orally with 10 μg/kg (n=10) or 100 μg/kg (n=8) latanoprost 30 min after reperfusion; endogenous in cells; host or cells: wild-type mice, whole animal (in vivo); FP-/- mice used as receptor-null control
T1 sequence (P43117 whole entry, the tested form may be a part): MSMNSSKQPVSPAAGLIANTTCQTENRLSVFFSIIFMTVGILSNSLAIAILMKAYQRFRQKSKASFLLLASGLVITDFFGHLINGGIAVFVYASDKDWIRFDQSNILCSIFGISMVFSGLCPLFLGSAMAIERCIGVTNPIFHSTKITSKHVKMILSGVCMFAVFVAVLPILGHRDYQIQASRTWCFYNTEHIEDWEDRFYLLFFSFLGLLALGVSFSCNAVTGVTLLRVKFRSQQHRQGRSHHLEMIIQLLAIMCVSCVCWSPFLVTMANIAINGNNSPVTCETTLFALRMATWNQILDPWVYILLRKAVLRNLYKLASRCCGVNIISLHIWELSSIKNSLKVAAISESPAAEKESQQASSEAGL
Description: Transient ischemia protocol. WT (n=11) and FP^−/− (n=12) mice were subjected to MCAO for 90 min followed by 96 h of reperfusion (Ahmad et al., 2006a). Mice were placed under halothane anesthesia (3.0% for induction, 1.0% for maintenance) and ventilated with oxygen-enriched air via a nose cone. Body temperatures were maintained at 37.0±0.5° C. by a heating pad. The mice were subjected to the intraluminal filament technique to produce the MCAO model of transient focal cerebral ischemia as we have described previously (Ahmad et al., 2006a). Relative cerebral blood flow (CBF) was measured by laser-Doppler flowmetry (Moor instruments, Devon, England) with a flexible probe affixed to the skull over the parietal cortex supplied by the MCA (2 mm posterior and 6 mm lateral to bregma). […] During occlusion, mice were kept in a humidity-controlled, 32° C. chamber to help maintain a body core temperature of 37° C. […]
(§1) Post-treatment of mice with the FP agonist latanoprost. […] At 96 h after MCAO, neurological deficit scores and brain injury were measured. […]
Assessment of brain infarction. […] Infarct volume was assessed by 2,3,5-triphenyltetrazolium chloride (TTC) staining by an observer blinded to the treatments, as described previously (Ahmad et al., 2006a). […] The corrected volume of the infarcted hemisphere was calculated as: volume of contralateral hemisphere−(volume of ipsilateral hemisphere−volume of infarct).

FP receptor [2] = biological target: T1, FP receptor; test: Neurological deficit score after transient ischemia (90-min MCAO), post-treatment with FP agonist; type: in vivo; conditions: WT mice
Description: (§2) Transient ischemia protocol. WT (n=11) and FP^−/− (n=12) mice were subjected to MCAO for 90 min followed by 96 h of reperfusion (Ahmad et al., 2006a). Mice were placed under halothane anesthesia (3.0% for induction, 1.0% for maintenance) and ventilated with oxygen-enriched air via a nose cone. Body temperatures were maintained at 37.0±0.5° C. by a heating pad. The mice were subjected to the intraluminal filament technique to produce the MCAO model of transient focal cerebral ischemia as we have described previously (Ahmad et al., 2006a). Relative cerebral blood flow (CBF) was measured by laser-Doppler flowmetry (Moor instruments, Devon, England) with a flexible probe affixed to the skull over the parietal cortex supplied by the MCA (2 mm posterior and 6 mm lateral to bregma). […] During occlusion, mice were kept in a humidity-controlled, 32° C. chamber to help maintain a body core temperature of 37° C. After 90 min of occlusion, mice were briefly re-anesthetized, the midline was reopened, and the filament was removed to establish reperfusion. After the incision was sutured, mice were again placed in the humidity- and temperature-controlled chamber for another 6 h and finally returned to their respective cages for survival up to 96 h.
(§3) Assessment of neurological deficit score. Neurological function was measured in each mouse at 96 h after reperfusion according to the following graded scoring system, as described previously (Li et al., 2004): 0=no deficit; 1=forelimb weakness and torso turning to the ipsilateral side when held by tail; 2=circling to affected side; 3=unable to bear weight on affected side; and 4=no spontaneous locomotor activity or barrel rolling.
as §1

FP receptor [3] = test: as above; type: in vivo, mouse; conditions: FP−/− mice, 100 μg/kg orally 30 min after reperfusion, scored at 96 h, mean±S.E.M., p<0.05 vs latanoprost-treated WT
Description: as §2, §3, §1

SMILES: CC(C)OC(=O)CCC/C=C\C[C@@H]1[C@@H](CC[C@@H](O)CCc2ccccc2)[C@H](O)C[C@@H]1O [latanoprost, 13,14-dihydro-17-phenyl-18,19,20-trinor-PGF2α isopropyl ester]
- brain damage (corrected infarct volume) (FP receptor [1]; 10 μg/kg orally 30 min after reperfusion, vs vehicle): trend toward increased brain damage
- brain damage (corrected infarct volume) (FP receptor [1]; 100 μg/kg orally 30 min after reperfusion, p<0.05 vs vehicle): significantly larger infarct volumes; also recorded: became significant
- neurological deficit score (FP receptor [2]; 10 μg/kg orally 30 min after reperfusion, scored at 96 h (scale 0-4), mean±S.E.M., vehicle 1.8±0.2, not significant): 2.2±0.2
- neurological deficit score (FP receptor [2]; 100 μg/kg orally 30 min after reperfusion, scored at 96 h, p<0.05 vs vehicle): significantly increased the neurological deficit
- neurological deficit score (FP receptor [3]): 1.4±0.2
